Data published in PMC12040169 (PLOS Biology, 2025).

Experiment: in vitro
Conditions: human, hela cells, % viability

CCC(=O)Nc1ccc(C(=O)Nc2ccc(S(=O)(=O)N3CCCCC3)cc2)cc1 [CBK269549]
viability at 28.5 h, 10 µM: 84%

Cn1c(=O)[nH]c(=O)c2c1nc(N1CCCCC1)n2CCCSc1nc2ccccc2s1 [CBK269550]
viability at 28.5 h, 10 µM: 103%

Cc1nnc2sc(-c3ccncc3)nn12 [CBK269553]
viability at 28.5 h, 10 µM: 84.6%

COc1ccc(S(=O)(=O)NCc2ccccn2)cc1NC(C)=O [CBK269554]
viability at 28.5 h, 10 µM: 103%

Cc1cc(C(F)(F)F)nc(NCc2ccco2)n1 [CBK269555]
viability at 28.5 h, 10 µM: 105%

CN(Cc1ccccc1)c1nc2c(c(=O)n(C)c(=O)n2C)n1CCSc1ncccn1 [CBK269564]
viability at 28.5 h, 10 µM: 97.7%

COc1ccc(NS(=O)(=O)c2ccc(OCC(=O)N3CCN(C)CC3)cc2)cc1Cl [CBK269565]
viability at 28.5 h, 10 µM: 85.8%

Cc1ccc2nsnc2c1NC(=O)CN1CCC(C)CC1 [CBK269568]
viability at 28.5 h, 10 µM: 86.2%

O=S(=O)(NCc1ccccc1)N1CCCCCC1 [CBK269569]
viability at 28.5 h, 10 µM: 101%

O=C(O)C(Nc1nc(C(F)(F)F)nc2ccccc12)c1ccccc1 (centres unmarked) [CBK269570]
viability at 28.5 h, 10 µM: 106%

Cc1cccc(C(=O)NCCCNC(=O)c2ccncc2)c1 [CBK269572]
viability at 28.5 h, 10 µM: 92.8%

C=CCn1c(SCCC(=O)O)nc2c1c(=O)n(C)c(=O)n2C [CBK269573]
viability at 28.5 h, 10 µM: 79.3%

c1ccc(-c2nc3ccccc3nc2N2CCNCC2)cc1 [CBK269574C]
viability at 28.5 h, 10 µM: 85%

CN1C(=O)N(C)C(=O)C(Cc2ccccn2)(Cc2ccccn2)C1=O [CBK269577]
viability at 28.5 h, 10 µM (bulk resorufin, single well): 97.5%

Cc1ccc(-c2cc3ccccn3c2C(=O)CSc2nncn2C)cc1 [CBK269580]
viability at 28.5 h, 10 µM: 83.5%

NC(=O)COc1ccc(CNc2ccc(Oc3ccccc3)cc2)cc1Cl [CBK269584]
viability at 28.5 h, 10 µM: 89.4%

CCOc1ccc(Oc2nc(N(C)C)nc(N3CCOCC3)n2)nn1 [CBK269585]
viability at 28.5 h, 10 µM: 104%

O=C(CN1CCN(S(=O)(=O)N2CCCCCC2)CC1)Nc1cc(Cl)ccc1Cl [CBK269587]
viability at 28.5 h, 10 µM: 90.1%

Cc1ccc(S(=O)(=O)Cc2ccc(C(=O)N3CCN(Cc4ccccc4)CC3)cc2)cc1 [CBK269588]
viability at 28.5 h, 10 µM: 86.1%

CCOc1ccc(CNCc2ccc(C(=O)O)cc2)cc1OC [CBK269590C]
viability at 28.5 h, 10 µM: 87.3%

O=C(CNC(=O)c1ccc(Br)cc1)NC1CCCC1 [CBK269591]
viability at 28.5 h, 10 µM: 90.3%

Cn1c(=O)[nH]c(=O)c2[nH]c(CN3CCN(Cc4ccccc4)CC3)nc21 [CBK269592]
viability at 28.5 h, 10 µM: 98.5%

COc1ccc(C(=O)N(Cc2ccco2)Cc2cc3ccccc3nc2O)cc1 [CBK269594]
viability at 28.5 h, 10 µM: 95.9%

CCOC(=O)CC(=O)COc1noc2nc(C)cc(C)c12 [CBK269595]
viability at 28.5 h, 10 µM: 98.2%

Cc1ccc(S(=O)(=O)Cc2cccc(C(=O)N3CCN(Cc4ccccc4)CC3)c2)cc1 [CBK269596]
viability at 28.5 h, 10 µM: 93%

O=C(CSc1nnc(-c2ccncc2)s1)NNC(=O)c1cccs1 [CBK269600]
viability at 28.5 h, 10 µM: 82.3%

COc1ccc(CCNC(=O)C2CCCN(S(=O)(=O)c3ccc4ccccc4c3)C2)cc1 (centres unmarked) [CBK269601]
viability at 28.5 h, 10 µM: 101%

O=C(c1cccs1)N(Cc1ccco1)Cc1cc2ccccc2[nH]c1=O [CBK269602]
viability at 28.5 h, 10 µM: 104%

COc1ccc(Cl)cc1S(=O)(=O)N1CCC(C(=O)O)CC1 [CBK269607]
viability at 28.5 h, 10 µM: 79.1%

Cc1cccc(OC(C)C(=O)Nc2ccc(S(=O)(=O)N3CCOCC3)cc2)c1 (centres unmarked) [CBK269609]
viability at 28.5 h, 10 µM: 106%

CC(=O)NCCc1nc2ccccc2n1CCOc1ccc(Cl)cc1 [CBK269610]
viability at 28.5 h, 10 µM: 107%

c1ccc(Cn2c(CN3CCCC3)nc3ccccc32)cc1 [CBK269612]
viability at 28.5 h, 10 µM: 87.7%

O=C(NCCNC(=O)c1ccccn1)c1cccc(F)c1 [CBK269613]
viability at 28.5 h, 10 µM: 78.3%

O=C(CSc1nnc(COc2cccc3cccnc23)n1-c1ccccc1)N1CCCC1 [CBK269614]
viability at 28.5 h, 10 µM: 79.1%

O=C(CSCCO)Nc1ccc(N2CCOCC2)cc1 [CBK269616]
viability at 28.5 h, 10 µM: 89.7%

O=S(=O)(NC1CCCCC1)c1ccc(S(=O)(=O)N2CCOCC2)cc1 [CBK269618]
viability at 28.5 h, 10 µM: 102%

C=CCn1c(SCC(=O)Nc2cccc(F)c2)nnc1-c1ccccc1O [CBK269620]
viability at 28.5 h, 10 µM: 83%

O=C(O)c1ccc(CNCc2ccc(-c3ccc(F)cc3)o2)cc1 [CBK269622C]
viability at 28.5 h, 10 µM: 90.9%

Cc1onc(-c2ccccc2Cl)c1C(=O)Nc1ccc(CC(=O)O)cc1 [CBK269623]
viability at 28.5 h, 10 µM: 89.2%

CC(=O)c1ccccc1OCCOCCN1CCCC(C)C1 (centres unmarked) [CBK269625C]
viability at 28.5 h, 10 µM: 106%

COc1cccc(NC(=O)CSc2nnc(CC(C)C)n2C)c1 [CBK269626]
viability at 28.5 h, 10 µM: 103%

Cn1c(CN2CCOCC2)nnc1SCC(=O)Nc1cccc(F)c1 [CBK269629]
viability at 28.5 h, 10 µM: 80.2%

O=C(CC1(O)C(=O)N(Cc2ccc3c(c2)OCO3)c2ccccc21)c1cccnc1 (centres unmarked) [CBK269633]
viability at 28.5 h, 10 µM: 103%

O=C(Nc1ccc(Cc2ccncc2)cc1)c1sc2c([N+](=O)[O-])cccc2c1Cl [CBK269635]
viability at 28.5 h, 10 µM: 97.1%

Cc1cc(OC(C)C(=O)Nc2ncccc2C)ccc1Cl (centres unmarked) [CBK269637]
viability at 28.5 h, 10 µM: 78.4%

COc1ccc(CSc2nnc(-c3ccncc3)n2C)cc1[N+](=O)[O-] [CBK269638]
viability at 28.5 h, 10 µM: 87.7%

O=C(CC1(O)C(=O)N(CN2CCOCC2)c2ccccc21)c1ccc2c(c1)OCO2 (centres unmarked) [CBK269639]
viability at 28.5 h, 10 µM: 99.3%

O=C(CCc1c[nH]c2ccccc12)OCc1nnc(-c2ccccc2)o1 [CBK269642]
viability at 28.5 h, 10 µM: 101%

O=C(NCCNc1ccc(Cl)cc1[N+](=O)[O-])c1c(F)cccc1F [CBK269643]
viability at 28.5 h, 10 µM: 97.6%

CC(NC(=O)c1ccccc1)c1nnc(SCC(=O)c2ccccc2)n1C (centres unmarked) [CBK269644]
viability at 28.5 h, 10 µM: 82.3%

O=C(c1cccc(S(=O)(=O)Nc2ccccn2)c1)N1CCCc2ccccc21 [CBK269645]
viability at 28.5 h, 10 µM: 84.9%

C=CCOc1ccc(OCCN2CC(C)OC(C)C2)cc1 (centres unmarked) [CBK269646C]
viability at 28.5 h, 10 µM: 112%

O=C(Nc1ccc2c(c1)OCO2)C1CCN(S(=O)(=O)c2ccc(Oc3ccccc3)cc2)CC1 [CBK269648]
viability at 28.5 h, 10 µM: 85.1%

Cc1cccc(C(=O)Nc2cc(NC(=O)c3cccc(C)c3)cc(C(=O)O)c2)c1 [CBK269649]
viability at 28.5 h, 10 µM: 98%

Cc1ccc(OCCCN2CCN(C)CC2)c(Cc2ccccc2)c1 [CBK269650C]
viability at 28.5 h, 10 µM: 104%

Cc1c(NCc2ccccn2)cccc1C(=O)O [CBK269651]
viability at 28.5 h, 10 µM: 86.9%

Cc1cc(I)ccc1OCCCCN1CCN(C)CC1 [CBK269652C]
viability at 28.5 h, 10 µM: 91.3%

O=C(Nc1cccc(CCc2ccccn2)c1)c1ccc([N+](=O)[O-])cc1 [CBK269653]
viability at 28.5 h, 10 µM: 86.9%

Cn1c(SCC(=O)Nc2ccc(Oc3ccc(Cl)cc3)cc2)nnc1-c1ccncc1 [CBK269654]
viability at 28.5 h, 10 µM: 95.6%

O=C(Oc1ccccc1)c1cc(S(=O)(=O)N2CCOCC2)c(Cl)cc1Cl [CBK269656]
viability at 28.5 h, 10 µM: 83.5%

O=C(NCc1cccs1)c1cc(S(=O)(=O)N2CCOCC2)c(Cl)cc1Cl [CBK269657]
viability at 28.5 h, 10 µM: 97.3%

Cc1nnc(SCC(=O)NCc2c(C)c(Cl)cc(C(C)C)c2O)s1 [CBK269662]
viability at 28.5 h, 10 µM: 86.1%

COc1ccc(C(=O)Nc2ccccc2O)cc1S(=O)(=O)N1CCCCC1 [CBK269665]
viability at 28.5 h, 10 µM: 92.6%

O=C(COc1ccc(CCO)cc1)Nc1ccccc1-c1ccccc1 [CBK269666]
viability at 28.5 h, 10 µM: 80.9%

O=C(CN1C(=O)COc2ccc(Cl)cc21)Nc1cccc(C(=O)O)c1 [CBK269667]
viability at 28.5 h, 10 µM: 93.1%

O=C(CSc1ccc(Cl)cc1)N1CCN(c2ccc([N+](=O)[O-])c(N3CCOCC3)c2)CC1 [CBK269670]
viability at 28.5 h, 10 µM: 85.3%

C=CCc1cc(C)cc(C)c1OCCN1CCN(C)CC1 [CBK269672C]
viability at 28.5 h, 10 µM: 101%

Cc1ccc(-n2c(SCC(N)=O)nnc2-c2ccccc2O)c(C)c1 [CBK269673]
viability at 28.5 h, 10 µM: 89.6%

O=C(NCc1cccnc1)c1ccc2c(c1)C(=O)N(Cc1ccco1)C2=O [CBK269675]
viability at 28.5 h, 10 µM: 88.6%

CCOc1ccc(NC(=O)C(C)O)c(NC(=O)c2ccccc2Cl)c1 (centres unmarked) [CBK269678]
viability at 28.5 h, 10 µM: 92.7%

COc1cc(CNc2cc(C(=O)O)ccc2C)cc(Br)c1OC [CBK269679]
viability at 28.5 h, 10 µM: 95.3%

O=C(CN1C(=O)COc2ccccc21)NCc1ccco1 [CBK269682]
viability at 28.5 h, 10 µM: 94.8%

O=C(CSc1ncn(-c2ccccc2)n1)Nc1c(Cl)cccc1Cl [CBK269683]
viability at 28.5 h, 10 µM: 94.7%

O=C(CSc1nnc(-c2ccccc2)c(-c2ccccc2)n1)Nc1ccc(N2CCOCC2)cc1 [CBK269684]
viability at 28.5 h, 10 µM: 89.7%

CCC(C(=O)Nc1ccc(OC(C)=O)cc1C(=O)O)c1ccccc1 (centres unmarked) [CBK269685]
viability at 28.5 h, 10 µM: 94.5%

COc1ccc(OCC(=O)Nc2ccc(CN3CCOCC3)cc2)cc1 [CBK269686]
viability at 28.5 h, 10 µM: 105%

CC1CN(CCOc2ccccc2C=O)CC(C)O1 (centres unmarked) [CBK269687C]
viability at 28.5 h, 10 µM: 101%

Cc1cc(OC(C)C(=O)Nn2cnnc2)ccc1Cl (centres unmarked) [CBK269690]
viability at 28.5 h, 10 µM: 98.1%

O=C(NCC1CCCO1)c1cc(S(=O)(=O)N2CCOCC2)c(Cl)cc1Cl (centres unmarked) [CBK269691]
viability at 28.5 h, 10 µM: 90.3%

Nc1nc(CSc2nnc(-c3ccco3)n2-c2ccccc2)cs1 [CBK269693]
viability at 28.5 h, 10 µM: 97.9%

Cc1nnc(Sc2ccc([N+](=O)[O-])cc2Cl)n1Cc1ccccc1 [CBK269694]
viability at 28.5 h, 10 µM: 102%

CCn1c(SCC(=O)c2ccc(F)cc2)nnc1C(C)Oc1ccccc1 (centres unmarked) [CBK269695]
viability at 28.5 h, 10 µM: 108%

Cc1cc(OC(C)C(=O)Nc2ccccc2C(=O)N2CCCCC2)ccc1Cl (centres unmarked) [CBK269696]
viability at 28.5 h, 10 µM: 104%

Cc1cc(C)c(C)c(S(=O)(=O)Nc2cc(S(=O)(=O)N3CCOCC3)ccc2F)c1C [CBK269698]
viability at 28.5 h, 10 µM: 61.9%

O=C(c1cccc(-c2cc3ccccc3oc2=O)c1)N1CCN(c2ccc([N+](=O)[O-])cc2Cl)CC1 [CBK269704]
viability at 28.5 h, 10 µM: 101%

Cc1ccc(-c2nnc(SCc3cccc4nsnc34)n2C)cc1 [CBK269706]
viability at 28.5 h, 10 µM: 92.7%

c1ccc(-c2nnc(COc3ccc(-c4cnc5ccccc5n4)cc3)o2)cc1 [CBK269707]
viability at 28.5 h, 10 µM: 90.4%

Cc1cc(OC(C)C(=O)Nc2ccccc2C(=O)N2CCCC2)ccc1Cl (centres unmarked) [CBK269710]
viability at 28.5 h, 10 µM: 94.3%

O=C(CSc1nc2ccccc2[nH]1)Nc1ccc(OC(F)(F)F)cc1 [CBK269711]
viability at 28.5 h, 10 µM: 104%
